The values below are quoted from earlier work in US11407830B2, “Methods of treating cancer with anti-PD-1 antibodies” (TESARO, INC., priority 2017, dated 2022).

By IC50 is commonly meant the concentration at which inhibition is half-maximal.

For series [1], the system named is PARP activity in various cell lines.
In series [2] the test system is non-small-cell lung cancer, melanoma, and renal-cell cancer. To be noted: Phase I clinical trial.

For `NC(=O)c1cccc2cn(-c3ccc([C@@H]4CCCNC4)cc3)nc12` [Niraparib, (3 S)-3-[4-{7-(aminocarbonyl)-2H-indazol-2-yl}phenyl]piperidine], the half-inhibitory concentration (IC50) in series [1] (read-out: IC50, PARP activity in cells, hydrogen peroxide DNA damage) is approximately 4 nM. Also, in series [1] (read-out: inhibitory concentration at 90% of control (IC90), PARP activity in cells, hydrogen peroxide DNA damage), the IC90 is approximately 50 nM.
As to “nivolumab: monoclonal antibody targeting PD-1”, the tumor response result in series [2] is recorded as “complete or partial responses”.
